Laboratory results as given in BindingDB's records for patent US12065430 (Taiho Pharmaceutical, 2024).

Molecular target: T1, Son of sevenless homolog 1 [564-1049]/GTPase KRas [G12C] (UniProt P01116+Q07889, G12C)
T1 construct: 564-1049
Experiment: Evaluation of Inhibitory Activity of Compounds on KRAS G12C Nucleotide (GDP-GTP) Exchange Reaction
Method: The inhibitory activity of compounds on exchange reaction of GDP into GppNHp in Bodipy (trademark) FL-bound KRAS G12C was examined by fluorescence measurement using human recombinant KRAS G12C and SOS1 proteins.For the preparation of KRAS G12C to which Bodipy FL GDP was bound, first, […] KRAS G12C (amino acid region: 1-169) and 1 mM Bodipy FL GDP (Invitrogen, G22360) were incubated for 1 hour in a buffer (20 mM Tris-HCl (pH 7.5), 50 mM NaCl, 1 mM DTT) in ice in the presence of 2.5 mM EDTA. Thereafter, MgCl2 with a final concentration of 10 mM was added, and the mixture was incubated at room temperature for 30 minutes. The protein was allowed to pass through a NAP-5 column to remove free nucleotides and was used for compound evaluation.For the measurement of the inhibitory activity of compounds on nucleotide exchange reaction, first, the compound of the present invention was diluted stepwise with dimethyl sulfoxide (DMSO). Subsequently, a solution of the gradually diluted compound of the present invention in DMSO (the final concentration of DMSO: 5%) and KRAS G12C (25 nM) bound to Bodipy FL GDP were added to a reaction buffer (20 mM Tris-HCl (pH 7.5), 100 mM NaCl, 1 mM MgCl2, 2 mM DTT, 0.1% Tween20), followed by preincubation at 25° C. for 4 hours. Thereafter, Son of Sevenless Homolog 1 (SOS1, amino acid region: 564-1049) and GppNHp (GMPPNP, Jena Bioscience GmbH, NU-401-50) were added such that their final concentration was 100 nM and 1 μM respectively, followed by reaction for 30 minutes. The change in fluorescence intensity of Bodipy FL (excitation wavelength: 485 nm, fluorescence wavelength: 520 nm) immediately after the start of reaction and after 30 minutes from the start of reaction was standardized. The signal value for only DMSO was determined to be 0% inhibition, and the signal value for no addition of GppNHp was determined to be 100% inhibition. The compound concentration at which 50% inhibition is achieved was determined to be IC50 (nM), and was calculated.

T1 sequence (P01116 whole entry G12C): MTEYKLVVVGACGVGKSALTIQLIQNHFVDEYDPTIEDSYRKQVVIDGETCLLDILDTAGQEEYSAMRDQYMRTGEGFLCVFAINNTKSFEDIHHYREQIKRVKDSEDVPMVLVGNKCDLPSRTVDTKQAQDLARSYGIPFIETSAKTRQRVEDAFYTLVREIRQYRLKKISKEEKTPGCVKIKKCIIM
T1 sequence (Q07889 564-1049): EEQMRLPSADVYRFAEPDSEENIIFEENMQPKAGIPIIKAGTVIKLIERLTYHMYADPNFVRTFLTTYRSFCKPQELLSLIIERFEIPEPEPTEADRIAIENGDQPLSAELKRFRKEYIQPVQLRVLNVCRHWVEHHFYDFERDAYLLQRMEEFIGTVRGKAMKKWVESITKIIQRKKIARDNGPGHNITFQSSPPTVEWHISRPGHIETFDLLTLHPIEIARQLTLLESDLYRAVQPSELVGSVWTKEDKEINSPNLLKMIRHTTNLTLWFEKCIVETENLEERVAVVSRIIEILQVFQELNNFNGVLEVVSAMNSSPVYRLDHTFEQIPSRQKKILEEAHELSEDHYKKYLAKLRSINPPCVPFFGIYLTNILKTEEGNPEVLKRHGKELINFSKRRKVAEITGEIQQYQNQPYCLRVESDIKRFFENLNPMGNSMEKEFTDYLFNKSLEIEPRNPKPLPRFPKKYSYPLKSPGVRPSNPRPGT

Compound | IC50 [nM]
C=CC(=O)N1CC(NC(=O)c2oc(CNc3n[nH]c4cc(Cl)c(C(C)(C)C)cc34)nc2C)C1 [US12065430, Example 11] | 1060
C=CC(=O)N1CC(NC(=O)c2c(I)nc(CNc3n[nH]c4cc(Cl)c(C(C)(C)C)cc34)n2C)C1 [US12065430, Example 26] | 69
CC(C)n1c(CNc2n[nH]c3cc(Cl)c(C(C)(C)C)cc23)nc(C(F)F)c1C(=O)NC1CN(C(=O)/C=C/CN(C)C)C1 [US12065430, Example 84] | 63
C=CC(=O)N1CC(NC(=O)c2c(CC)nc(CNc3n[nH]c4cc(Cl)c(C(C)(C)C)cc34)n2C)C1 [US12065430, Example 31] | 642
C=CC(=O)N1CC(NC(=O)c2cnc(CNc3n[nH]c4cc(Cl)c(C(C)(C)C)nc34)n2C)C1 [US12065430, Example 40] | 27
C=CC(=O)N1CC(NC(=O)c2cnc(CNc3n[nH]c4cc(Cl)c(C(C)(C)C)cc34)s2)C1 [US12065430, Example 8] | 783
C=CC(=O)N1CC(NC(=O)c2c(C)nc(CNc3n[nH]c4cc(Cl)c(C(C)(C)C)cc34)n2C(F)F)C1 [US12065430, Example 21] | 58
C=CC(=O)N1C[C@@H](CN(C)C)[C@@H](NC(=O)c2c(C)nc(CNc3n[nH]c4cc(Cl)c(C(C)(C)C)cc34)n2C)C1 [US12065430, Example 68] | 99
C=CC(=O)N1CC(NC(=O)c2c(C)nc(CNc3n[nH]c4cc(Cl)c(C(C)(C)C)cc34)n2C(C)CC)C1 (centres undefined) [US12065430, Example 20] | 31
CC#CC(=O)N1CC(NC(=O)c2c(C)nc(CNc3n[nH]c4cc(Cl)c(C(C)(C)C)cc34)n2C(C)C)C1 [US12065430, Example 82] | 209
C=CC(=O)N1CC(NC(=O)c2cc(CNc3n[nH]c4cc(Cl)c(C(C)(C)C)cc34)nn2C)C1 [US12065430, Example 9] | 3140
C=CC(=O)N1CC(NC(=O)c2c(Cl)nc(CNc3n[nH]c4cc(Cl)c(C(C)C)cc34)n2C(C)C)C1 [US12065430, Example 45] | 24
C=CC(=O)N1CC(NC(=O)c2c(C(F)(F)F)nc(CNc3n[nH]c4cc(Cl)c(C(C)(C)C)cc34)n2C)C1 [US12065430, Example 25] | 163
C=CC(=O)N1CC(NC(=O)c2c(C)nc(CNc3n[nH]c4cc(Cl)c(C(C)(C)C)cc34)n2Cc2ccccc2)C1 [US12065430, Example 15] | 84
C=CC(=O)N1CC(NC(=O)c2c(C(F)(F)F)nc(CNc3n[nH]c4cc(Cl)c(C(C)(C)C)cc34)n2C(C)C)C1 [US12065430, Example 32] | 50
C=CC(=O)N1CC(NC(=O)c2c(C(F)F)nc(CNc3n[nH]c4cc(Cl)c(C(C)(C)C)cc34)n2C2CCN(C(C)C)C2)C1 (centres undefined) [US12065430, Example 93] | 6
C=CC(=O)N(C)C1CN(C(=O)c2c(C)nc(CNc3n[nH]c4cc(Cl)c(C(C)(C)C)cc34)n2C)C1 [US12065430, Example 51] | 42
C=CC(=O)N1CC(NC(=O)c2csc(CNc3n[nH]c4cc(Cl)c(C(C)(C)C)cc34)n2)C1 [US12065430, Example 7] | 4260
C=CC(=O)N1CC(NC(=O)c2c(C(F)F)nc(CNc3n[nH]c4cc(Cl)c(C(C)(C)C)cc34)n2CC2CCCN2C(C)C)C1 (centres undefined) [US12065430, Example 95] | 44
C=CC(=O)N1CC(NC(=O)c2c(C)nc(CNc3n[nH]c4ccc(C(C)(C)C)cc34)n2C(C)C)C1 [US12065430, Example 42] | 68
C=CC(=O)N1CC(NC(=O)c2c(C#N)nc(CNc3n[nH]c4cc(Cl)c(C(C)(C)C)cc34)n2C)C1 [US12065430, Example 28] | 70
C=CC(=O)N1CC(NC(=O)c2cnc(C(C)Nc3n[nH]c4cc(Cl)c(C(C)(C)C)cc34)n2C)C1 (centres undefined) [US12065430, Example 4] | 1560
C=CC(=O)N1CC(NC(=O)c2sc(CNc3n[nH]c4cc(Cl)c(C(C)(C)C)cc34)nc2C)C1 [US12065430, Example 2] | 365

The remaining compounds from weak to strong by IC50, led by results:

IC50 [nM] | Compound
24 | C=CC(=O)N1C[C@@H](COC)[C@@H](NC(=O)c2c(C)nc(CNc3n[nH]c4cc(Cl)c(C(C)(C)C)cc34)n2C)C1 [US12065430, Example 67]
19 | C=CC(=O)N1C[C@@H](CC#N)[C@@H](NC(=O)c2c(C)nc(CNc3n[nH]c4cc(Cl)c(C(C)(C)C)cc34)n2C)C1 [US12065430, Example 65]
17 | C=CC(=O)N1CC(NC(=O)c2c(C)nc(CNc3n[nH]c4cc(Cl)c(C(C)(C)C)cc34)n2C2CCCC2)C1 [US12065430, Example 17]
16 | C=CC(=O)N1CC(NC(=O)c2cnc(CNc3n[nH]c4cc(Cl)c(C(C)(C)C)cc34)n2C)C1 [US12065430, Example 1]
15 | C=CC(=O)N1CC(NC(=O)c2c(C)nc(CNc3n[nH]c4cc(Cl)c(C(C)(C)C)cc34)n2C(C)C)C1 [US12065430, Example 13]
14 | C=CC(=O)N1CC(NC(=O)c2c(Cl)nc(CNc3n[nH]c4cc(Cl)c(C(C)(C)C)cc34)n2CC(F)F)C1 [US12065430, Example 100]
14 | C=CC(=O)N1CC(NC(=O)c2c(C)nc(CNc3n[nH]c4cc(C)c(C(C)(C)C)cc34)n2C)C1 [US12065430, Example 41]
14 | C=CC(=O)N1CC(NC(=O)c2c(Cl)nc(CNc3n[nH]c4cc(Cl)c(C(C)(C)C)cc34)n2CCCC)C1 [US12065430, Example 87]
13 | C=CC(=O)N1C[C@H](NC(=O)c2c(Cl)nc(CNc3n[nH]c4cc(Cl)c(C(C)(C)C)cc34)n2C)[C@@H](F)C1 [US12065430, Example 76]
11 | C=CC(=O)N1CC(NC(=O)c2c(Cl)nc(CNc3n[nH]c4cc(Cl)c(C(C)(C)C)cc34)n2[C@@H]2CCN(CCOC)C2)C1 [US12065430, Example 119]
11 | C=CC(=O)N1CC(NC(=O)c2c(F)nc(CNc3n[nH]c4cc(Cl)c(C(C)(C)C)cc34)n2C)C1 [US12065430, Example 30]
9 | C=CC(=O)N1CC(NC(=O)c2c(Cl)nc(CNc3n[nH]c4cc(Cl)c(C(C)(C)C)cc34)n2C2CCCN(CC(F)F)C2)C1 (centres undefined) [US12065430, Example 117]
9 | C=CC(=O)N1CC(NC(=O)c2c(Cl)nc(CNc3n[nH]c4cc(Cl)c(C(C)(C)C)cc34)n2C2CN(C(C)=O)C2)C1 [US12065430, Example 108]
9 | C=CC(=O)N1CC(NC(=O)c2c(C)nc(CNc3n[nH]c4cc(Cl)c(C(C)(C)C)cc34)n2CCC)C1 [US12065430, Example 19]
8 | C=CC(=O)N1CC(NC(=O)c2c(Cl)nc(CNc3n[nH]c4cc(Cl)c(C(C)(C)C)cc34)n2C2CCCC2)C1 [US12065430, Example 105]
8 | C=CC(=O)N1CC(NC(=O)c2c(Cl)nc(CNc3n[nH]c4cc(Cl)c(C(C)(C)C)cc34)n2C(C)C)C1 [US12065430, Example 35]
7 | C=CC(=O)N1CC(NC(=O)c2c(Cl)nc(CNc3n[nH]c4cc(Cl)c(C(C)(C)C)cc34)n2[C@@H]2C[C@@H](O)[C@@H](O)C2)C1 [US12065430, Example 99]
7 | C=CC(=O)N1CC(NC(=O)c2c(C)nc(CNc3n[nH]c4cc(Cl)c(C(C)(C)C)cc34)n2C2CC2)C1 [US12065430, Example 23]
5 | C=CC(=O)N1CC(NC(=O)c2c(Cl)nc(CNc3n[nH]c4cc(Cl)c(C(C)(C)C)cc34)n2C2CCCN(C)C2)C1 (centres undefined) [US12065430, Example 118]
5 | C=CC(=O)N1CC(NC(=O)c2c(Cl)nc(CNc3n[nH]c4cc(Cl)c(C(C)(C)C)cc34)n2[C@@H]2CCN(C3COC3)C2)C1 [US12065430, Example 121]
4 | C=CC(=O)N1CC(NC(=O)c2c(C(F)F)nc(CNc3n[nH]c4cc(Cl)c(C(C)(C)C)cc34)n2C2CCN(C(C)=O)C2)C1 (centres undefined) [US12065430, Example 96]
